The results in this text go back to patent publication US20250382296A1, “NITROGEN-CONTAINING FUSED THREE RING PRMT5 INHIBITOR, AND PREPARATION METHOD THEREFOR AND PHARMACEUTICAL USE THEREOF” (Abbisko Therapeutics Co., Ltd., priority 2022, published 2025).

In assay [1] the test system is HCT 116 wild-type MTAP cells. Put plainly: Inhibition of proliferation of HCT116 wild-type MTAP cells (CellTiter-Glo, 6 days). It is filed as cell-based. As to conditions: Homo sapiens, HCT-116, 144 h. The protocol:
(§1) 1. HCT 116 MTAP-knockout cells and HCT 116 wild-type MTAP cells were plated in 96-well flat-bottom plates and cultured overnight at 37° C. and […] in McCoy's 5A medium containing 10% fetal bovine serum+1% penicillin-streptomycin.
(§2) 2. The next day, compounds were each dissolved in DMSO, diluted successively with DMSO and medium and then transferred to cell plates; the final concentration of each compound was 10 μM, 4-fold dilution was performed to obtain 9 concentration points, and a DMSO control was provided.
(§3) 3. Cells not treated with compound were subjected to CellTiter-Glo Luminescent Cell Viability Assay (Promega) to detect the cell viability, and reference was made to the kit instructions for the operation; the plates were then placed on an EnVision Multilabel Reader to detect luminescence signals.
(§4) 4. Meanwhile, the cell plates containing cells treated with compounds were cultured continuously at 37° C. and […] CO2 for 6 days.
(§5) 5. Then, the cell viability was also detected by CellTiter-Glo.
(§6) 6. Finally, dose response curves were plotted using the four parameter dose response curve module of GraphPad Prism v 9.2.0 software and proliferation inhibition IC50 (unit: nM) was calculated.

Assay [2] concerns HCT 116 MTAP-knockout cells. Description: Inhibition of proliferation of HCT116 MTAP-knockout cells (CellTiter-Glo, 6 days). The format is cell-based, human. As to conditions: for IC50: Homo sapiens, HCT-116, 144 h, proliferation inhibition, HCT116 MTAP-knockout, 6 days, CellTiter-Glo; for Selectivity: IC50 HCT116 wild-type cells / IC50 HCT116 MTAP-knockout cells. The protocol: as §1, §2, §3, §4, §5, §6
Background: In ATP-based viability assays light output follows the ATP content of the culture.

For orientation: IC50 means the concentration that gives 50% inhibition. Read a high IC50 as weaker potency. With `C[C@H](c1ncccn1)N(Cc1ccc(C(F)(F)F)cn1)C(=O)c1ccc2nc(N)c3c(cnn3C)c2c1` [Comparative compound 1, reference compound], in assay [1], the IC50 stood at 0.0427 µM. In assay [2], the IC50 stood at 0.0163 µM and the Selectivity is recorded as 2.6.
For `CC(c1ncccn1)N(Cc1ccc(C(F)(F)F)cn1)C(=O)c1ccc2nc(N)c3[nH]ncc3c2c1` (stereo not drawn) [Comparative compound 2, reference compound] the same measures were 0.0783 µM, 0.0355 µM and 2.2.
The matching figures for `CC(C1CC1)N(Cc1ccc(C(F)(F)F)cn1)C(=O)c1ccc2nc(N)c3cnn(C)c3c2c1` (stereo not drawn) [Comparative compound 3, reference compound]: 0.096 µM, 0.006 µM and 16.
The matching figures for `C[C@H](c1ncccn1)N(Cc1ccc(C(F)(F)F)cn1)C(=O)c1ccc2nc(N)c3cnn(C)c3c2c1` [Comparative compound 4, reference compound]: 0.085 µM, 0.006 µM and 14.2.
Turning to `Cc1ncc2c(N)nc3ccc(C(=O)N(Cc4ccc(C(F)(F)F)cn4)[C@H](C)c4ncccn4)cc3n12` [Example 1, (R)-4-amino-1-methyl-N-(1-(pyrimidin-2-yl)ethyl)-N-((5-(trifluoromethyl)pyridin-2-yl)methyl)imidazo[1,5-a]quinoxaline-8-carboxamide], the IC50 came to 1.5 µM in assay [1] and 0.029 µM in assay [2]. Also, the Selectivity in assay [2] amounted to 51.7.
The matching figures for `Cc1ncc2c(N)nc3cc(F)c(C(=O)N(c4cnn(C)c4)[C@@H]4COc5cc(C(F)(F)F)ccc54)cc3n12` [Example 2, (S)-4-amino-7-fluoro-1-methyl-N-(1-methyl-1H-pyrazol-4-yl)-N-(6-(trifluoromethyl)-2,3-dihydrobenzofuran-3-yl)imidazo[1,5-a]quinoxaline-8-carboxamide]: 0.207 µM, 0.005 µM and 41.4.
For `C[C@H](c1ncccn1)N(Cc1ccc(C(F)(F)F)cn1)C(=O)c1ccc2nc(N)c3cncn3c2c1` [Example 3, (R)-4-amino-N-(1-(pyrimidin-2-yl)ethyl)-N-((5-(trifluoromethyl)pyridin-2-yl)methyl)imidazo[1,5-a]quinoxaline-8-carboxamide] the same measures were 0.166 µM, 0.008 µM and 20.8.
For `C[C@@H]1COC[C@H](c2ccc(C(F)(F)F)cn2)N1C(=O)c1ccc2nc(N)c3cncn3c2c1` [Example 14a, (4-aminoimidazo[1,5-a]quinoxalin-8-yl)((3R,5S)-3-methyl-5-(5-(trifluoromethyl)pyridin-2-yl)morpholino)methanone] the same measures were 2.06 µM, 0.055 µM and 37.4.
`Nc1nc2ccc(C(=O)N(CC3CC3)C3CCc4cc(C(F)(F)F)ccc43)cc2n2cncc12` (stereo not drawn) [Example 22, 4-amino-N-(cyclopropylmethyl)-N-(5-(trifluoromethyl)-2,3-dihydro-1H-inden-1-yl)imidazo[1,5-a]quinoxaline-8-carboxamide]: the IC50 in assay [1] was determined as 5.48 µM. In assay [2], the concentration for half-maximal inhibition (IC50) is 0.154 µM and the Selectivity is listed as 35.6.
For `Cn1cc(N(C(=O)c2ccc3nc(N)c4cncn4c3c2)C2COc3cc(C(F)(F)F)ccc32)cn1` (stereo not drawn) [Example 30, 4-amino-N-(1-methyl-1H-pyrazol-4-yl)-N-(6-(trifluoromethyl)-2,3-dihydrobenzofuran-3-yl)imidazo[1,5-a]quinoxaline-8-carboxamide] the same measures were 0.725 µM, 0.012 µM and 60.4.
The matching figures for `Cn1cc(N(C(=O)c2ccc3nc(N)c4cncn4c3c2)[C@@H]2COc3cc(C(F)(F)F)ccc32)cn1` [Example 30a, (S)-4-amino-N-(1-methyl-1H-pyrazol-4-yl)-N-(6-(trifluoromethyl)-2,3-dihydrobenzofuran-3-yl)imidazo[1,5-a]quinoxaline-8-carboxamide]: 0.381 µM, 0.004 µM and 95.3.
In assay [2], `Nc1nc2ccc(C(=O)N(CC3CC3)[C@@H]3CCc4nc(C(F)(F)F)ccc43)cc2n2cncc12` [Example 34a, (R)-4-amino-N-(cyclopropylmethyl)-N-(2-(trifluoromethyl)-6,7-dihydro-5H-cyclopenta[b]pyridin-5-yl)imidazo[1,5-a]quinoxaline-8-carboxamide] yielded an IC50 of 0.225 µM.
On the same count and under the same terms, the same measure for `Nc1nc2ccc(C(=O)N(CC3CC3)[C@H]3CCc4nc(C(F)(F)F)ccc43)cc2n2cncc12` [Example 34b, (S)-4-amino-N-(cyclopropylmethyl)-N-(2-(trifluoromethyl)-6,7-dihydro-5H-cyclopenta[b]pyridin-5-yl)imidazo[1,5-a]quinoxaline-8-carboxamide]: 1.82 µM.
Consider `Nc1nc2ccc(C(=O)N(Cc3ccc(C(F)(F)F)cn3)CC3CC3)cc2n2cncc12` [Example 144, 4-amino-N-(cyclopropylmethyl)-N-((5-(trifluoromethyl)pyridin-2-yl)methyl)imidazo[1,5-a]quinoxaline-8-carboxamide], for which the IC50 was determined as 2.06 µM in assay [1] and 0.022 µM in assay [2]. This compound also came in with a Selectivity in assay [2] of 93.5.
For `CC(C1CC1)N(Cc1ccc(C(F)(F)F)cn1)C(=O)c1ccc2nc(N)c3cncn3c2c1` (stereo not drawn) [Example 145, 4-amino-N-(1-cyclopropylethyl)-N-((5-(trifluoromethyl)pyridin-2-yl)methyl)imidazo[1,5-a]quinoxaline-8-carboxamide] the same measures were 1.07 µM, 0.024 µM and 44.8.
The matching figures for `CN(Cc1ccc(C(F)(F)F)cn1)C(=O)c1ccc2nc(N)c3cncn3c2c1` [Example 146, 4-amino-N-methyl-N-((5-(trifluoromethyl)pyridin-2-yl)methyl)imidazo[1,5-a]quinoxaline-8-carboxamide]: above 10 µM, 0.224 µM and above 44.6.
The matching figures for `Nc1nc2ccc(C(=O)N(Cc3ccc(C(F)(F)F)cn3)C3CCC3)cc2n2cncc12` [Example 147, 4-amino-N-cyclobutyl-N-((5-(trifluoromethyl)pyridin-2-yl)methyl)imidazo[1,5-a]quinoxaline-8-carboxamide]: 4.99 µM, 0.115 µM and 43.4.
In the case of `Nc1nc2ccc(C(=O)N(Cc3ccc(C(F)(F)F)cn3)CC(F)(F)F)cc2n2cncc12` [Example 148, 4-amino-N-(2,2,2-trifluoroethyl)-N-((5-(trifluoromethyl)pyridin-2-yl)methyl)imidazo[1,5-a]quinoxaline-8-carboxamide], the half-inhibitory concentration (IC50) in assay [1] is above 10 µM; in assay [2] it was 0.202 µM. Also, in assay [2], the Selectivity is given as above 49.5.
`Nc1nc2ccc(C(=O)N(Cc3ccc(OC(F)(F)F)cn3)CC3CC3)cc2n2cncc12` [Example 158, 4-amino-N-(cyclopropylmethyl)-N-((5-(trifluoromethoxy)pyridin-2-yl)methyl)imidazo[1,5-a]quinoxaline-8-carboxamide]: the IC50 in assay [2] was determined as 0.068 µM.
Regarding `Nc1nc2ccc(C(=O)N(CC3CC3)[C@H]3COc4nc(C(F)(F)F)ccc43)cc2n2cncc12` [Example 181b, (R)-4-amino-N-(cyclopropylmethyl)-N-(6-(trifluoromethyl)-2,3-dihydrofuro[2,3-b]pyridin-3-yl)imidazo[1,5-a]quinoxaline-8-carboxamide], in assay [2], the midpoint of inhibition, the IC50, lay at 3.13 µM. This IC50 is about 46-fold higher than that of the compound before.
Still for that read-out and setting: the same measure for `CC(c1ccc(C(F)(F)F)cn1)N(CC1CC1)C(=O)c1ccc2nc(N)c3cncn3c2c1` (stereo not drawn) [Example 203, 4-amino-N-(cyclopropylmethyl)-N-(1-(5-(trifluoromethyl)pyridin-2-yl)ethyl)imidazo[1,5-a]quinoxaline-8-carboxamide]: 0.155 µM; for `CN(C(=O)c1ccc2nc(N)c3cncn3c2c1)C1COc2nc(C(F)(F)F)ccc21` (stereo not drawn) [Example 204, 4-amino-N-methyl-N-(6-(trifluoromethyl)-2,3-dihydrofuro[2,3-b]pyridin-3-yl)imidazo[1,5-a]quinoxaline-8-carboxamide]: 0.238 µM.
Still for that read-out and setting: with `Cn1cc(N(C(=O)c2ccc3nc(N)c4cncn4c3c2)[C@@H]2COc3nc(C(F)(F)F)ccc32)cn1` [Example 205a, (S)-4-amino-N-(1-methyl-1H-pyrazol-4-yl)-N-(6-(trifluoromethyl)-2,3-dihydrofuro[2,3-b]pyridin-3-yl)imidazo[1,5-a]quinoxaline-8-carboxamide] the figure was 0.313 µM.
On the same count and under the same terms, with `COCCN(Cc1ccc(C(F)(F)F)cn1)C(=O)c1ccc2nc(N)c3cnc(C)n3c2c1` [Example 224, 4-amino-N-(2-methoxyethyl)-1-methyl-N-((5-(trifluoromethyl)pyridin-2-yl)methyl)imidazo[1,5-a]quinoxaline-8-carboxamide] the figure was 0.323 µM.
As to `CN(Cc1ccc(C(F)(F)F)cn1)C(=O)c1cc2c(cc1F)nc(N)c1cccn12` [Example 232, 4-amino-7-fluoro-N-methyl-N-((5-(trifluoromethyl)pyridin-2-yl)methyl)pyrrolo[1,2-a]quinoxaline-8-carboxamide], in assay [2], half-maximal inhibition (IC50) required 2.24 µM.
